Results: ChEMBL document CHEMBL4190388, “Discovery and Optimization of Indolyl-Containing 4-Hydroxy-2-Pyridone Type II DNA Topoisomerase Inhibitors Active against Multidrug Resistant Gram-negative Bacteria” (J Med Chem, 2018)
≈ marks a conversion by molar mass, not a printed value.

Tests used:
Type in all cases: functional
[1] = system: Escherichia coli; experiment: Antibacterial activity against fluoroquinolone resistant Escherichia coli SKM18 by CLSI M100-S17 protocol based method
[2] = system: Acinetobacter baumannii; experiment: Antibacterial activity against wild type Acinetobacter baumannii ATCC BAA-747 by CLSI M100-S17 protocol based method
[3] = system: Escherichia coli; experiment: Antibacterial activity against wild type Escherichia coli ATCC 25922 in presence of HSA by CLSI M100-S17 protocol based method
[4] = system: Acinetobacter baumannii; experiment: Antibacterial activity against fluoroquinolone resistant Acinetobacter baumannii isolate MMX2240 by CLSI M100-S17 protocol based method
[5] = system: Escherichia coli; experiment: Antibacterial activity against wild type Escherichia coli ATCC 25922 by CLSI M100-S17 protocol based method
[6] = system: Klebsiella pneumoniae; experiment: Antibacterial activity against wild type Klebsiella pneumoniae ATCC 35657 by CLSI M100-S17 protocol based method
[7] = system: Escherichia coli; experiment: Antibacterial activity against quinolone resistance Escherichia coli isolate ELZ4251 harboring gyrA/parC mutant by CLSI M100-S17 protocol based method

SMILES | MIC [1] | MIC [2] | MIC [3] | MIC [4] | MIC [5] | MIC [6] | MIC [7]
Cn1c(CN2CCCC2)cc2cc3c(cc21)SCCc1c-3[nH]c(=O)c(C(=O)O)c1O | 2 mg/L (≈ 4.7 µM) | 2 mg/L (≈ 4.7 µM) | 31.3 mg/L | 3.9 mg/L (≈ 9.17 µM) | 2 mg/L (≈ 4.7 µM) | 2 mg/L (≈ 4.7 µM) | –
CN(C)CCNCc1cc2cc3c(cc2n1C)CCCc1c-3[nH]c(=O)c(C(=O)O)c1O | 0.5 mg/L (≈ 1.18 µM) | 15.6 mg/L (≈ 36.7 µM) | 15.6 mg/L | 62.5 mg/L (≈ 147 µM) | 3.9 mg/L (≈ 9.19 µM) | 2 mg/L (≈ 4.71 µM) | –
CN(C)Cc1cc2cc(-c3cc(O)c(C(=O)O)c(=O)[nH]3)ccc2n1C | > 12.5 mg/L | – | – | – | > 12.5 mg/L | – | –
COC1CCN(Cc2cc3cc4c(cc3n2C)CCCc2c-4[nH]c(=O)c(C(=O)O)c2O)C1 (stereo not drawn) | 2 mg/L (≈ 4.57 µM) | 3.1 mg/L (≈ 7.09 µM) | 3.1 mg/L | 3.1 mg/L (≈ 7.09 µM) | 1.6 mg/L (≈ 3.66 µM) | 3.1 mg/L (≈ 7.09 µM) | –
CCc1c(-c2ccc3c(c2)cc(CNC(C)C)n3C)[nH]c(=O)c(C(=O)O)c1O | 1.6 mg/L (≈ 4.17 µM) | 0.78 mg/L (≈ 2.03 µM) | 1.6 mg/L | 3.1 mg/L (≈ 8.08 µM) | 0.39 mg/L (≈ 1.02 µM) | 0.39 mg/L (≈ 1.02 µM) | 3.1 mg/L (≈ 8.08 µM)
CCc1c(-c2ccc3c(c2)cc(CNC)n3C)[nH]c(=O)c(C(=O)O)c1O | 1.6 mg/L (≈ 4.5 µM) | 0.78 mg/L (≈ 2.19 µM) | 0.78 mg/L | 6.3 mg/L (≈ 17.7 µM) | 0.39 mg/L (≈ 1.1 µM) | 0.78 mg/L (≈ 2.19 µM) | 3.1 mg/L (≈ 8.72 µM)
CN(C)Cc1cc2cc(-c3[nH]c(=O)c(C(=O)O)c(O)c3C3CC3)ccc2n1C | 31.3 mg/L (≈ 82.1 µM) | > 62.5 mg/L | > 62.5 mg/L | 15.6 mg/L (≈ 40.9 µM) | 62.5 mg/L (≈ 164 µM) | 31.3 mg/L (≈ 82.1 µM) | –
CCc1c(-c2ccc(N(C)C)cc2)[nH]c(=O)c(C(=O)O)c1O | 15.6 mg/L (≈ 51.6 µM) | 1.6 mg/L (≈ 5.29 µM) | > 62.5 mg/L | 6.3 mg/L (≈ 20.8 µM) | 0.78 mg/L (≈ 2.58 µM) | 3.1 mg/L (≈ 10.3 µM) | 15.6 mg/L (≈ 51.6 µM)
CCc1c(-c2ccc3c(c2)cc(CNC(C)(C)C)n3C)[nH]c(=O)c(C(=O)O)c1O | 6.3 mg/L (≈ 15.9 µM) | 0.78 mg/L (≈ 1.96 µM) | 1.6 mg/L | 6.3 mg/L (≈ 15.9 µM) | 0.78 mg/L (≈ 1.96 µM) | 0.78 mg/L (≈ 1.96 µM) | 6.3 mg/L (≈ 15.9 µM)
Cn1c(CN2CCCC2)cc2cc3c(cc21)COCc1c-3[nH]c(=O)c(C(=O)O)c1O | 0.39 mg/L (≈ 0.953 µM) | 12.5 mg/L (≈ 30.5 µM) | – | 12.5 mg/L (≈ 30.5 µM) | 3.1 mg/L (≈ 7.57 µM) | 3.1 mg/L (≈ 7.57 µM) | –
CCNCc1cc2cc3c(cc2n1C)OCCc1c-3[nH]c(=O)c(C(=O)O)c1O | 0.78 mg/L (≈ 2.03 µM) | 12.5 mg/L (≈ 32.6 µM) | 1.6 mg/L | 12.5 mg/L (≈ 32.6 µM) | 0.78 mg/L (≈ 2.03 µM) | 0.78 mg/L (≈ 2.03 µM) | 12.5 mg/L (≈ 32.6 µM)
CC(C)c1c(-c2ccc3c(c2)cc(CN(C)C)n3C)[nH]c(=O)c(C(=O)O)c1O | > 62.5 mg/L | 15.6 mg/L (≈ 40.7 µM) | 31.3 mg/L | 62.5 mg/L (≈ 163 µM) | 3.1 mg/L (≈ 8.08 µM) | 3.9 mg/L (≈ 10.2 µM) | –
CCc1c(-c2ccc3c(c2)cc(CN2CCCC2)n3C)[nH]c(=O)c(C(=O)O)c1O | 6.3 mg/L (≈ 15.9 µM) | 0.78 mg/L (≈ 1.97 µM) | – | 12.5 mg/L (≈ 31.6 µM) | 0.78 mg/L (≈ 1.97 µM) | 0.78 mg/L (≈ 1.97 µM) | 6.3 mg/L (≈ 15.9 µM)
CN(C)CCNCc1cc2cc3c(cc2n1C)OCCc1c-3[nH]c(=O)c(C(=O)O)c1O | 7.8 mg/L (≈ 18.3 µM) | > 62.5 mg/L | 62.5 mg/L | > 62.5 mg/L | > 62.5 mg/L | 31.3 mg/L (≈ 73.4 µM) | –
CNCc1cc2cc3c(cc2n1C)NCCc1c-3[nH]c(=O)c(C(=O)O)c1O | 3.9 mg/L (≈ 10.6 µM) | > 25 mg/L | – | > 25 mg/L | 31.3 mg/L (≈ 85 µM) | 6.3 mg/L (≈ 17.1 µM) | > 62.5 mg/L
CCc1c(-c2ccc3c(c2)c(C)c(C)n3C)[nH]c(=O)c(C(=O)O)c1O | – | – | – | – | > 12.5 mg/L | – | –
CN(C)Cc1cc2cc3c(cc2n1C)SCCc1c-3[nH]c(=O)c(C(=O)O)c1O | 2 mg/L (≈ 5.01 µM) | 2 mg/L (≈ 5.01 µM) | 31.2 mg/L | 3.9 mg/L (≈ 9.76 µM) | 2 mg/L (≈ 5.01 µM) | 2 mg/L (≈ 5.01 µM) | –
CCNCc1cc2cc3c(cc2n1C)NCCc1c-3[nH]c(=O)c(C(=O)O)c1O | 3.9 mg/L (≈ 10.2 µM) | > 25 mg/L | – | > 25 mg/L | 15.6 mg/L (≈ 40.8 µM) | 6.3 mg/L (≈ 16.5 µM) | > 62.5 mg/L
COCCNCc1cc2cc3c(cc2n1C)CCCc1c-3[nH]c(=O)c(C(=O)O)c1O | 0.5 mg/L (≈ 1.22 µM) | 1.6 mg/L (≈ 3.89 µM) | 3.1 mg/L | 1 mg/L (≈ 2.43 µM) | 0.78 mg/L (≈ 1.9 µM) | 0.78 mg/L (≈ 1.9 µM) | 1.6 mg/L (≈ 3.89 µM)
CC(C)NCc1cc2cc3c(cc2n1C)NCCc1c-3[nH]c(=O)c(C(=O)O)c1O | 3.9 mg/L (≈ 9.84 µM) | > 25 mg/L | – | > 25 mg/L | 7.8 mg/L (≈ 19.7 µM) | 6.3 mg/L (≈ 15.9 µM) | 62.5 mg/L (≈ 158 µM)
COCCNCc1cc2cc3c(cc2n1C)OCCc1c-3[nH]c(=O)c(C(=O)O)c1O | 0.5 mg/L (≈ 1.21 µM) | 7.8 mg/L (≈ 18.9 µM) | 15.6 mg/L | 7.8 mg/L (≈ 18.9 µM) | 2 mg/L (≈ 4.84 µM) | 2 mg/L (≈ 4.84 µM) | –
CN(C)Cc1cc2cc3c(cc2n1C)COCc1c-3[nH]c(=O)c(C(=O)O)c1O | 0.78 mg/L (≈ 2.03 µM) | 25 mg/L (≈ 65.2 µM) | – | 25 mg/L (≈ 65.2 µM) | 6.3 mg/L (≈ 16.4 µM) | 3.1 mg/L (≈ 8.09 µM) | –
CC(C)NCc1cc2cc3c(cc2n1C)COCc1c-3[nH]c(=O)c(C(=O)O)c1O | 0.78 mg/L (≈ 1.96 µM) | > 50 mg/L | – | > 50 mg/L | 12.5 mg/L (≈ 31.5 µM) | 3.1 mg/L (≈ 7.8 µM) | –
COC1CCN(Cc2cc3cc4c(cc3n2C)OCCc2c-4[nH]c(=O)c(C(=O)O)c2O)C1 (stereo not drawn) | 2 mg/L (≈ 4.55 µM) | 3.9 mg/L (≈ 8.87 µM) | 7.8 mg/L | 7.8 mg/L (≈ 17.7 µM) | 3.9 mg/L (≈ 8.87 µM) | 15.6 mg/L (≈ 35.5 µM) | –
